Our source for the inhibition in vivo values is US8124780B2, “Benzimidazole compound” (priority 2005, dated 2012).

For this test, the system named is gastric acid secretion. The test is described as follows: animal or person. The conditions noted are these: Canis lupus familiaris. The format is in vivo, dog.
Where [1] appears, read: iv, 24 h, read-out: Persistency of inhibitory effect against gastric acid secretion (%).
The mark [2] stands for this setting: iv, read-out: Inhibitory effect against gastric acid secretion (%).

Where a name gives a salt, the structure may show the parent alone. Read-outs that look alike come from different tables or passages of the source.

In the case of `Cc1ccc2[nH]c([S+]([O-])Cc3nccc(OCC4COC(C)(C)OC4)c3C)nc2c1` (stereo not shown) [Example 55, 2-(((4-((2,2-dimethyl-1,3-dioxan-5-yl)methoxy)-3-methylpyridin-2-yl)methyl)sulfinyl)-5-methyl-1H-benzimidazole sodium salt], the inhibition in vivo at 0.8 mg/kg stood at 75% under setting [1] and 83% under setting [2].

On to `Cc1cnc(C[S+]([O-])c2nc3cc(F)ccc3[nH]2)c(C)c1OCC1COC(C)(C)OC1` (stereo not shown) [Example 56, 2-(((4-((2,2-dimethyl-1,3-dioxan-5-yl)methoxy)-3,5-dimethylpyridin-2-yl)methyl)sulfinyl)-5-fluoro-1H-benzimidazole sodium salt], for which the inhibition in vivo at 0.8 mg/kg by setting is: under setting [1], 74%; under setting [2], 84%.

Take `[O-][S+](Cc1cc(OCC2COC3(CCC3)OC2)ccn1)c1nc2ccccc2[nH]1` (stereo not shown) [Example 57, 2-(((4-(5,9-dioxaspiro[3.5]non-7-ylmethoxy)pyridin-2-yl)methyl)sulfinyl)-1H-benzimidazole sodium salt]: the inhibition in vivo at 0.8 mg/kg by setting is: under setting [1], 83%; under setting [2], 98%.

As to `[O-][S+](Cc1cc(OCC2COC3(CCCC3)OC2)ccn1)c1nc2ccccc2[nH]1` (stereo not shown) [Example 58, 2-(((4-(6,10-dioxaspiro[4.5]dec-8-ylmethoxy)pyridin-2-yl)methyl)sulfinyl)-1H-benzimidazole sodium salt], the inhibition in vivo at 0.8 mg/kg by setting is: under setting [1], 77%; under setting [2], 95%.

`[O-][S+](Cc1cc(OCC2COC(CF)(CF)OC2)ccn1)c1nc2ccccc2[nH]1` (stereo not shown) [Example 59, 2-(((4-((2,2-bis(fluoromethyl)-1,3-dioxan-5-yl)methoxy)pyridin-2-yl)methyl)sulfinyl)-1H-benzimidazole sodium salt]: the inhibition in vivo at 0.8 mg/kg under setting [1] is 77% and the inhibition in vivo at 0.8 mg/kg under setting [2] stood at 89%.

For the compound `[O-][S+](Cc1cc(OCC2COC3(CCOCC3)OC2)ccn1)c1nc2ccccc2[nH]1` (stereo not shown) [Example 60, 2-(((4-(1,5,9-trioxaspiro[5.5]undec-3-ylmethoxy)pyridin-2-yl)methyl)sulfinyl)-1H-benzimidazole sodium salt], the inhibition in vivo at 0.8 mg/kg stood at 74% under setting [1] and 89% under setting [2].

Turning to `Cc1c(OCC2COc3ccccc3O2)ccnc1C[S+]([O-])c1nc2ccccc2[nH]1` (stereo not shown) [Example 61, 2-(((4-(2,3-dihydro-1,4-benzodioxin-2-ylmethoxy)-3-methylpyridin-2-yl)methyl)sulfinyl)-1H-benzimidazole sodium salt], the inhibition in vivo at 1.6 mg/kg by setting is: under setting [1], 90%; under setting [2], 100%.

In the case of `Cc1c(OCCC2COC(C)(C)O2)ccnc1C[S+]([O-])c1nc2ccccc2[nH]1` (stereo not shown) [Example 64, 2-(((4-(2-(2,2-dimethyl-1,3-dioxolan-4-yl)ethoxy)-3-methylpyridin-2-yl)methyl)sulfinyl)-1H-benzimidazole sodium salt], the inhibition in vivo at 0.8 mg/kg by setting is: under setting [1], 78%; under setting [2], 100%.

Consider `CCC1(CC)OCC(COc2ccnc(C[S+]([O-])c3nc4ccccc4[nH]3)c2C)O1` (stereo not shown) [Example 65, 2-(((4-((2,2-diethyl-1,3-dioxolan-4-yl)methoxy)-3-methylpyridin-2-yl)methyl)sulfinyl)-1H-benzimidazole sodium salt], for which the inhibition in vivo at 1.6 mg/kg is, setting by setting: under setting [1], 91%; under setting [2], 100%.

`Cc1c(OCC2OCCO2)ccnc1C[S+]([O-])c1nc2ccccc2[nH]1` (stereo not shown) [Example 66, 2-(((4-(1,3-dioxolan-2-ylmethoxy)-3-methylpyridin-2-yl)methyl)sulfinyl)-1H-benzimidazole sodium salt]: the inhibition in vivo at 1.6 mg/kg under setting [1] was determined as 79% and the inhibition in vivo at 1.6 mg/kg under setting [2] stood at 100%.

For the compound `Cc1c(OCC2(C)OCCO2)ccnc1C[S+]([O-])c1nc2ccccc2[nH]1` (stereo not shown) [Example 67, 2-(((3-methyl-4-((2-methyl-1,3-dioxolan-2-yl)methoxy)pyridin-2-yl)methyl)sulfinyl)-1H-benzimidazole sodium salt], the inhibition in vivo at 1.6 mg/kg is 83% under setting [1] and 100% under setting [2].

Take `Cc1c(OCCC2(C)OCCO2)ccnc1C[S+]([O-])c1nc2ccccc2[nH]1` (stereo not shown) [Example 69, 2-(((3-methyl-4-(2-(2-methyl-1,3-dioxolan-2-yl)ethoxy)pyridin-2-yl)methyl)sulfinyl)-1H-benzimidazole sodium salt]: the inhibition in vivo at 1.6 mg/kg by setting is: under setting [1], 78%; under setting [2], 100%.

`Cc1c(OCC2(C)OCCO2)ccnc1C[S+]([O-])c1nc2ccccc2[nH]1` (stereo not drawn) [Example 70, Sodium salt of an optical isomer of 2-(((3-methyl-4-((2-methyl-1,3-dioxolan-2-yl)methoxy)pyridin-2-yl)methyl)sulfinyl)-1H-benzimidazole]: the inhibition in vivo at 1.6 mg/kg (i.d., 24 h, dose 1.6 mg/kg i.d., second day, 24 hours after administration, histamine i.v., read-out: Persistency of inhibitory effect against gastric acid secretion (%)) was found to be 77% and the inhibition in vivo at 1.6 mg/kg (i.d., dose 1.6 mg/kg i.d., first day, 1 h 40 min to 2 h after administration, histamine i.v., read-out: Inhibitory effect against gastric acid secretion (%)) came out at 100%.

For the compound `Cc1c(OCCC2(C)OCC3(CO2)OCCO3)ccnc1C[S+]([O-])c1nc2ccccc2[nH]1` (stereo not shown) [Example 73, 2-(((3-methyl-4-(2-(8-methyl-1,4,7,9-tetraoxaspiro[4.5]dec-8-yl)ethoxy)pyridin-2-yl)methyl)sulfinyl)-1H-benzimidazole sodium salt], the inhibition in vivo at 0.8 mg/kg was determined as 94% under setting [1] and 100% under setting [2].

For the compound `CC1(CCOc2ccnc(C[S+]([O-])c3nc4ccccc4[nH]3)c2)OCC2(CO1)OCCO2` (stereo not shown) [Example 75, 2-(((4-(2-(8-methyl-1,4,7,9-tetraoxaspiro[4.5]dec-8-yl)ethoxy)pyridin-2-yl)methyl)sulfinyl)-1H-benzimidazole sodium salt], the inhibition in vivo at 0.8 mg/kg turned out to be 75% under setting [1] and 85% under setting [2].

As for `Cc1c(OC2CCC3(CC2)OCC(C)(C)CO3)ccnc1C[S+]([O-])c1nc2ccccc2[nH]1` (stereo not shown) [Example 81, 2-(((4-((3,3-dimethyl-1,5-dioxaspiro[5.5]undec-9-yl)oxy)-3-methylpyridin-2-yl)methyl)sulfinyl)-1H-benzimidazole sodium salt], the inhibition in vivo at 0.8 mg/kg stood at 70% under setting [1] and 96% under setting [2].

In the case of `[O-][S+](Cc1cc(OC2COC3(CCC3)OC2)ccn1)c1nc2ccccc2[nH]1` (stereo not shown) [Example 83, 2-(((4-(5,9-dioxaspiro[3.5]non-7-yloxy)pyridin-2-yl)methyl)sulfinyl)-1H-benzimidazole sodium salt], the inhibition in vivo at 0.8 mg/kg under setting [1] is 94% and the inhibition in vivo at 0.8 mg/kg under setting [2] was found to be 71%.

`Cc1c(OCC2OCC3(CCC3)CO2)ccnc1C[S+]([O-])c1nc2ccccc2[nH]1` (stereo not shown) [Example 85, 2-(((4-(6,8-dioxaspiro[3.5]non-7-ylmethoxy)-3-methylpyridin-2-yl)methyl)sulfinyl)-1H-benzimidazole sodium salt]: the inhibition in vivo at 0.8 mg/kg is, setting by setting: under setting [1], 86%; under setting [2], 100%.

For `Cc1c(OCCC2OCC(C)(C)CO2)ccnc1C[S+]([O-])c1nc2ccccc2[nH]1` (stereo not shown) [Example 86, 2-(((4-(2-(5,5-dimethyl-1,3-dioxan-2-yl)ethoxy)-3-methylpyridin-2-yl)methyl)sulfinyl)-1H-benzimidazole sodium salt], the inhibition in vivo at 0.8 mg/kg is, setting by setting: under setting [1], 75%; under setting [2], 100%.

Turning to `Cc1c(OCC2COCO2)ccnc1C[S+]([O-])c1nc2ccccc2[nH]1` (stereo not shown) [Example 87, 2-(((4-(1,3-dioxolan-4-ylmethoxy)-3-methylpyridin-2-yl)methyl)sulfinyl)-1H-benzimidazole sodium salt], the inhibition in vivo at 0.8 mg/kg under setting [1] worked out at 92% and the inhibition in vivo at 0.8 mg/kg under setting [2] was determined as 100%.
